Activity calls are given as the source filed them.
How the values were obtained:
[1] = CRF-BP/CRF-R2 complex antagonists, dose response, cell-based, uHTS hits, 384-well (AID 651639); type: functional, Homo sapiens; settings: read-out: IC50_Mean
[2] = target: T1, Corticotropin-releasing factor receptor 2/Corticotropin-releasing factor-binding protein (Homo sapiens, UniProt P24387+Q13324); test: activators of CRF receptor 2 with binding protein – uHTS hits, confirmation (AID 602473); type: functional; settings: read-out: EC50_Mean
T1 sequence (Q13324 whole entry): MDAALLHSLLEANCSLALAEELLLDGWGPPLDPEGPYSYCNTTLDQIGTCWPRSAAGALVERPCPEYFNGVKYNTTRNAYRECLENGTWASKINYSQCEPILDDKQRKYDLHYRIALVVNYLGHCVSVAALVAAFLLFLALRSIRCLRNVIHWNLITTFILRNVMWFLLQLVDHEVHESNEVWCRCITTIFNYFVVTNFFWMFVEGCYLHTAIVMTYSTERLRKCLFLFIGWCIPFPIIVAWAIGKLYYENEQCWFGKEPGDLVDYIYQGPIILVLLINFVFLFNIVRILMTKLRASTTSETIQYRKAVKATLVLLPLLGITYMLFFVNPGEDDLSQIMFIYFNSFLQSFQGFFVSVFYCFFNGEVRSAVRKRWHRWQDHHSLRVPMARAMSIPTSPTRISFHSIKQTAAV
T1 sequence (P24387 whole entry): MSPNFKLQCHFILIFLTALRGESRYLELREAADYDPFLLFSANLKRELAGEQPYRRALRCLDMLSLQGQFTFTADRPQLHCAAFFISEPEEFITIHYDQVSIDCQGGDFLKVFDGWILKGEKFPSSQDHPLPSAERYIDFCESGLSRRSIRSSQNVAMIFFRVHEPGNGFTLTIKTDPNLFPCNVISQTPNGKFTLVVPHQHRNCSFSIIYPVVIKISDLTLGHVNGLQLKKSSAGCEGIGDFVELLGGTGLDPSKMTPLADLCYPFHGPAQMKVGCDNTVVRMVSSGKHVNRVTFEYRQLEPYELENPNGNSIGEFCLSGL

[3] = target: T1, Corticotropin-releasing factor receptor 2/Corticotropin-releasing factor-binding protein; test: Dose Response confirmation of uHTS hits for small molecule antagonists of the CRF-binding protein and CRF-R2 receptor complex.; type: functional; settings: read-out: IC50_Mean
[4] = target: Induced myeloid leukemia cell differentiation protein Mcl-1 (Homo sapiens, UniProt Q07820); type: functional
Bcl-2-like protein 10 = target: T2, Bcl-2-like protein 10 (Homo sapiens, UniProt Q9HD36); test: displacers of TR3 peptide from Bcl-B, primary screen, selectivity assay for Bfl-1 inhibitor project, biochemical, fluorescence polarization, FITC-TR3 peptide (AID 748);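 note: fluorescence polarization from a fluorescein-labelled TR3 peptide binding purified Bcl-B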
T2 sequence (Q9HD36 whole entry): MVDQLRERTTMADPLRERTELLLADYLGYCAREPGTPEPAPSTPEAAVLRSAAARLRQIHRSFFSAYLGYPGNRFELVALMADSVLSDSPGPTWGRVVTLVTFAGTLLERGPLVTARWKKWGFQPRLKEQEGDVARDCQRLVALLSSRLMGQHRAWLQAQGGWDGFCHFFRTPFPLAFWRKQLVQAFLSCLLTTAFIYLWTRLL

Prothrombin = Prothrombin (Homo sapiens, UniProt P00734); test: Thrombin 1536 HTS Dose Response Confirmation. [Related pubchem assays: 1046 (Thrombin 1536 HTS; hits were confirmed in this assay)]; type: functional
Insulin-degrading enzyme [5] = target: T3, Insulin-degrading enzyme (Homo sapiens, UniProt P14735); test: activators of endogenous IDE in HEK cells, dose response, cell-based, fluorescence polarization (AID 588439); type: functional
T3 sequence (P14735 whole entry): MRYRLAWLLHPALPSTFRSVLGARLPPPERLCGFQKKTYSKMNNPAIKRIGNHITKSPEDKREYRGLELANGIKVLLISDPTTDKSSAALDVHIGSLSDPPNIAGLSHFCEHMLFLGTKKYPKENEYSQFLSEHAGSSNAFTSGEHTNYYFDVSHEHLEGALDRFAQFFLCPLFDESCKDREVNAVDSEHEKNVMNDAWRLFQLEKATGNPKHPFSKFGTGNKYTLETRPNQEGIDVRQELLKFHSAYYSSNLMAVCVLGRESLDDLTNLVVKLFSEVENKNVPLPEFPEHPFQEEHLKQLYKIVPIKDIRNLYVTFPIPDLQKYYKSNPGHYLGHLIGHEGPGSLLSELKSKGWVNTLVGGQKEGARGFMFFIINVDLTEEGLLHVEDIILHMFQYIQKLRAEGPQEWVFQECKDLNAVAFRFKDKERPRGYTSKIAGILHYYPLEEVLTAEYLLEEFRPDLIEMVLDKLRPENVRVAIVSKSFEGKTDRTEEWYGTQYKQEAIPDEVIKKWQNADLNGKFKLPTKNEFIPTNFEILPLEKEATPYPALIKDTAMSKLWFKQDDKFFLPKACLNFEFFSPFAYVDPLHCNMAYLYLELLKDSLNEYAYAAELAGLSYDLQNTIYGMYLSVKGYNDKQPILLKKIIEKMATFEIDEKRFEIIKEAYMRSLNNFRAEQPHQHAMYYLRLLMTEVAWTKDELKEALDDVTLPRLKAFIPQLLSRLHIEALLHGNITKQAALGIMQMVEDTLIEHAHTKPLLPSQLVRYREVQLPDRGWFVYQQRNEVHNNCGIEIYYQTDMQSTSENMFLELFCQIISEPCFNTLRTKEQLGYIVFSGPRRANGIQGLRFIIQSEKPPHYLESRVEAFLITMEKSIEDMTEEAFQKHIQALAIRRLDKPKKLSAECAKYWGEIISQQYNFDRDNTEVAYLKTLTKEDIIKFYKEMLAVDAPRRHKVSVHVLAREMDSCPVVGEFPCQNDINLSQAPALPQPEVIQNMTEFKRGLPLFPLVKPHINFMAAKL

HEK293 [6] = test: optical interference in Abeta FP readout, dose response, artefact control for IDE activator project, biochemical, fluorescence polarization (AID 588442); type: functional, cell-based; settings: Homo sapiens
Insulin-degrading enzyme [7] = target: T3, Insulin-degrading enzyme; test: activators of recombinant IDE enzyme, dose response, counter-screen for IDE activator project, biochemical, fluorescence polarization (AID 588681)
HEK293 [8] = test: HEK cell cytotoxicity by LDH release, dose response, cytotoxicity control for IDE activator project, fluorescence, HEK cells (AID 588440); type: functional, cell-based; settings: Homo sapiens;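 note: cytotoxicity by LDH release measuring loss of membrane integrity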
[9] = target: T4, Ubiquitin-conjugating enzyme E2 N (Homo sapiens, UniProt P61088); type: functional;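 note: Dose-response confirmation in a TR-FRET assay detecting UBC13-driven polyubiquitin chain formation, inhibition measured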
T4 sequence (P61088 whole entry): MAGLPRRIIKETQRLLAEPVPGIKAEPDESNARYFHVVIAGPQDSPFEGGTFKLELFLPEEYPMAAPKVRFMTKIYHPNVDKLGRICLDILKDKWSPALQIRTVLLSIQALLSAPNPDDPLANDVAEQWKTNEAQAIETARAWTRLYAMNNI

[10] = target: T5, DNA repair protein RAD52 homolog (Homo sapiens, UniProt P43351); type: functional, biochemical
T5 sequence (P43351 whole entry): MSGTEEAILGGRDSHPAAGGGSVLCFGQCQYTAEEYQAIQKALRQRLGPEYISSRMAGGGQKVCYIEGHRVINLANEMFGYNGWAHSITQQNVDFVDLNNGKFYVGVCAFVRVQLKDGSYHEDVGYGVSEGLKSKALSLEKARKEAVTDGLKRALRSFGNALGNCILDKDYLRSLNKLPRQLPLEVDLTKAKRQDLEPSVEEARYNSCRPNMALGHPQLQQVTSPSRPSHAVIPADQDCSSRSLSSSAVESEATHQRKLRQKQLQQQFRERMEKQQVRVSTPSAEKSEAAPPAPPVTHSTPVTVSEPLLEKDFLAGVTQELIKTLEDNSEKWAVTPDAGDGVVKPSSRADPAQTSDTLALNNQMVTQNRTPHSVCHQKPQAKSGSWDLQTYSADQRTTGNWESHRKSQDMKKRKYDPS

[11] = THP-1 cell cytotoxicity, dose response, cytotoxicity control for non-replicating M. tuberculosis project (AID 489025); type: functional
INS1 = test: beta cell apoptosis inhibitors, cytokine rescue, dose response, luminescence, retest (AID 449756); type: functional, cell-based; settings: Rattus norvegicus;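 note: cell death triggered by IL-1 beta plus TNF-alpha plus IFN-gamma mixture; protective hits raise ATP signal compared with cytokine alone wells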
cells = type: functional
[12] = Vero E6 cell cytotoxicity, dose response, cytotoxicity control for non-replicating M. tuberculosis project, secondary assay (AID 492998); type: functional, VeroE6; settings: Vero C1008
[13] = target: Eukaryotic translation initiation factor 4E (Mus musculus, UniProt P63073); test: eIF4E–eIF4G protein interaction inhibitors, dose response, biochemical, TR-FRET (AID 855); type: functional;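 note: potency for disrupting eIF4E binding to eIF4GI seen as loss of FRET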
[14] = NIH:OVCAR-3 ovarian cancer cell cytotoxicity, dose response, PAX8 inhibitor project, plate reader, dry powder samples (AID 743044); type: functional, cell-based
[15] = non-specific cell cytotoxicity, dose response, cytotoxicity control for PAX8 inhibitor project, plate reader, dry powder samples (AID 743021); type: functional, cell-based
Paired box protein Pax-8 = Paired box protein Pax-8 (Homo sapiens, UniProt Q06710); test: inhibitors of PAX8-driven TPO luciferase reporter, dose response, RMG-I cells, cherry-pick (AID 687027); type: functional, cell-based;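 note: luciferase reporter driven by Pax8 target thyroperoxidase promoter measured by SteadyGlo luminescence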
[16] = ZM109 Env clade C HIV-1 fusion inhibitors, dose response, HeLa effector, CEM target cells, luciferase, cherry-pick (AID 652058); type: functional, cell-based
[17] = inhibitors of HIV Env-driven cell fusion, dose response, cherry-pick (AID 652057); type: functional, cell-based
[18] = inhibitors of clade B AD8 Env fusion, dose response, cell-based, cherry-pick (AID 652062); type: functional;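 note: luciferase signal from cell-cell fusion driven by HIV-1 clade B AD8 Env; potency is for inhibitors of fusion seen as a drop in luminescence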

Chain of Paired box protein Pax-8 (Q06710 whole entry, the tested form may be a part): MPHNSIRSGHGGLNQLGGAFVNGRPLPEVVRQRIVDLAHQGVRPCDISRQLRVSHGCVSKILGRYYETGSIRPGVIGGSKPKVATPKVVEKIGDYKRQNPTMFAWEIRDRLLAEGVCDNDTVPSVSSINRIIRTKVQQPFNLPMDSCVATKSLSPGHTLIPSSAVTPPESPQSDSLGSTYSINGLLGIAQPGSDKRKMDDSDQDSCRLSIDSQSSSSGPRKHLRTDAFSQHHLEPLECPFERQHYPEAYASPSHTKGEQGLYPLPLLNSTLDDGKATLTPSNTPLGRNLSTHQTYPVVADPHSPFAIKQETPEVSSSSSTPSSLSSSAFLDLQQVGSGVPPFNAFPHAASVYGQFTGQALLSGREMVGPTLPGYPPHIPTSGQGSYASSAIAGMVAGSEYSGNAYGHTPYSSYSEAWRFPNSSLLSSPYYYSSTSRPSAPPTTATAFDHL
Chain of Induced myeloid leukemia cell differentiation protein Mcl-1 (Q07820 whole entry): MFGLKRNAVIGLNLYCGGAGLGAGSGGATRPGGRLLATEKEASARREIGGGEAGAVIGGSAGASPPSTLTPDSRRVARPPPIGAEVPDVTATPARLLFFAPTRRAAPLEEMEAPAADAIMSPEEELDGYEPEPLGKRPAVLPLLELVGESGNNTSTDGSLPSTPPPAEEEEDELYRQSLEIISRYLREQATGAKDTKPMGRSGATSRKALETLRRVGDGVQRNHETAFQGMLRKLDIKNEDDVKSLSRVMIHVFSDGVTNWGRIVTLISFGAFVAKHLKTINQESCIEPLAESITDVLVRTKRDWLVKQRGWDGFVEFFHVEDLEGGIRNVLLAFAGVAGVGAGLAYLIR
Chain of Eukaryotic translation initiation factor 4E (P63073 whole entry): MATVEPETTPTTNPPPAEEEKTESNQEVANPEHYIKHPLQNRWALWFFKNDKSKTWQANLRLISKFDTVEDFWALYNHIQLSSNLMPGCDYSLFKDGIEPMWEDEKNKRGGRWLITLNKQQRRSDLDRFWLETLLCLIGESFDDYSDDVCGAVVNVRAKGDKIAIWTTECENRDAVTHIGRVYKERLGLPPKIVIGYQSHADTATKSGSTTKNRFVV

CN(C)c1ccc(C=C2C(=O)OC(C)(C)OC2=O)cc1
IC50 [1]: 7.91 µM (active)
EC50 [2]: > 53 µM (inactive)
IC50 [3]: 5.16 µM (active)

Cc1ccc(OCC(=O)Nc2ccc(N3CCCC3)cc2)cc1C
IC50 [4]: 6.68 µM (active)
IC50 (Bcl-2-like protein 10): 40.8 µM (active)

O=C(COC(=O)CCC(=O)c1cccs1)Nc1ccccc1[N+](=O)[O-]
IC50 (Prothrombin): 6.93 µM (active)

Nc1cc(N)nc(SCCOc2ccccc2)n1
EC50 (Insulin-degrading enzyme [5]): > 54.7 µM (inactive)
EC50 (HEK293 [6]): > 55.9 µM (inactive)
EC50 (Insulin-degrading enzyme [7]): > 54.7 µM (inactive)
IC50 (HEK293 [8]): > 89.2 µM (inactive)

COc1ccc(N2C(=O)/C(=C/Nc3ccccc3)c3ccccc3C2=O)cc1
IC50 (Prothrombin): > 50 µM (not active)

Cn1c(C(C#N)C2=C(Cl)C(=O)N(c3ccccc3)C2=O)nc2ccccc21 (stereo unspecified)
IC50 (Bcl-2-like protein 10): 16.5 µM (active)

CCS(=O)(=O)NCc1ccc2c(c1)cc(C)n2C
IC50 (Bcl-2-like protein 10): > 50 µM (inactive)

ClCCN1CCN(c2ccnc3cc(Cl)ccc23)CC1
IC50 [9]: > 20 µM (inactive)
AC50 [10]: 17.2 µM (active)

Cc1cc(C)nc(-n2nc(C)cc2Nc2ccccc2)n1
CC50 [11]: > 40 µM (active)
AC50 (INS1): 2.91 µM (active)
IC50 (cells): 0.5 µM (active)
CC50 [12]: > 20 µM (active)
IC50 (Prothrombin): > 50 µM (not active)

CC(NC(=O)CN(C1CCCCC1)S(C)(=O)=O)c1ccccc1 (stereo unspecified)
IC50 (Prothrombin): > 50 µM (not active)

O=c1[nH]nc(SCc2nnc(-c3ccc([N+](=O)[O-])cc3)o2)n1C1CCCCC1
IC50 (Prothrombin): 4.04 µM (active)

CC(=O)Nc1ccc(Nc2nc3ccccc3nc2NS(=O)(=O)c2ccc(Cl)c([N+](=O)[O-])c2)cc1
IC50 [1]: 10.2 µM (active)
EC50 [2]: > 53 µM (inactive)
IC50 [3]: 6.14 µM (active)

CCCCC[C@@H]1C=C(C(=O)O)[C@H](c2cccc(C)c2)N1S(=O)(=O)c1ccc(C)cc1
IC50 [1]: > 20 µM (inactive)
EC50 [2]: 40.7 µM (active)
IC50 [3]: 36.6 µM (active)

CN(c1ccccc1)S(=O)(=O)c1cccc(NC(=O)COc2cccc([N+](=O)[O-])c2)c1
IC50 [1]: > 20 µM (inactive)
EC50 (Insulin-degrading enzyme [5]): > 54.7 µM (inactive)
EC50 [2]: > 53 µM (inactive)
EC50 (HEK293 [6]): > 55.9 µM (inactive)
EC50 (Insulin-degrading enzyme [7]): > 54.7 µM (inactive)
IC50 [3]: > 23.6 µM (inactive)
IC50 (HEK293 [8]): > 89.2 µM (inactive)

COc1ccc(OC)c(C(=O)COC(=O)CN2C(=O)NC3(CCCCC3C)C2=O)c1 (stereo unspecified)
EC50 (Insulin-degrading enzyme [5]): > 54.7 µM (inactive)
EC50 (HEK293 [6]): > 55.9 µM (inactive)
EC50 (Insulin-degrading enzyme [7]): > 54.7 µM (inactive)
IC50 (HEK293 [8]): > 89.2 µM (inactive)

CO/N=C/C(C#N)c1ncc(C(F)(F)F)cc1Cl (stereo unspecified)
IC50 [1]: 6.73 µM (active)
IC50 [13]: > 64 µM (inactive)
EC50 [2]: 5.81 µM (active)
IC50 [3]: 4.92 µM (active)

C[C@@H]1CN([C@H](C)CO)C(=O)c2cc(NC(=O)Nc3ccc(C(F)(F)F)cc3)ccc2O[C@@H](C)CCCCO[C@@H]1CN(C)C(=O)NC1CCCCC1
AC50 [14]: 35.7 µM (active)
AC50 [15]: 2.66 µM (active)
AC50 (Paired box protein Pax-8): 4.46 µM (active)

C[C@@H]1CN([C@@H](C)CO)C(=O)Cc2cc(NS(=O)(=O)c3cccs3)ccc2O[C@H]1CN(C)Cc1ccc(C(F)(F)F)cc1
AC50 [14]: 32.8 µM (active)
AC50 [16]: 1.39 µM (active)
AC50 (Paired box protein Pax-8): 5.33 µM (active)
AC50 [17]: 10.1 µM (active)
AC50 [18]: 25.8 µM (active)

Cc1ccc(S(=O)(=O)Nc2ccc3c(c2)CC(=O)N([C@H](C)CO)C[C@H](C)[C@H](CN(C)S(=O)(=O)c2ccc(F)cc2)O3)cc1
AC50 [14]: 59.2 µM (active)
AC50 [16]: 5.04 µM (active)
AC50 (Paired box protein Pax-8): 25.3 µM (active)
AC50 [17]: 5.23 µM (active)
AC50 [18]: 4.36 µM (active)
